We go through nine compounds from article PMC5622025, “Synthesis and biological evaluation of tricyclic matrinic derivatives as a class of novel anti-HCV agents” (Chemistry Central Journal, 2017).

Where a name gives a salt, the structure may show the parent alone. Read-outs that look alike come from different tables or passages of the source.

Data set [1] has as its system HCV. Description: Anti-HCV effect in vitro, intracellular HCV RNA by real-time RT-PCR in infected Huh7.5 cells. It counts as cell-based, hepatitis C virus. The conditions noted are these: for EC50: read-out: EC50 (concentration required to inhibit HCV growth by 50%); for SI (ratio of CC50 to EC50): Huh7.5 cells. How it is done: (§1) All the target compounds were evaluated for their anti-HCV activities (EC50) and cytotoxicities (CC50) in human Huh7.5 cells using specific real-time RT-PCR assay, as described earlier. As an important indicator, the selectivity index (SI) was calculated as a ratio of CC50 to EC50. Anti-HCV ability of a given compound was estimated by combining its EC50 with SI values.
(§2) Human liver cell line Huh7.5 cells (kindly provided by Vertex Pharmaceuticals, Inc., Boston, MA) were cultured in Dulbecco’s modified eagle medium (DMEM) supplemented with 10% inactivated fetal bovine serum and 1% penicillin–streptomycin (invitrogen). Cells were digested with 0.05% trypsin-ethylene diamine tetraacetic acid (EDTA) and split twice a week.
Huh7.5 cells were seeded into 96-well or 6-well plates (Costar) at a density of 3 × 10^4 cells cm^−2. After 24 h incubation, the cells were infected with HCV viral stock (45 IU cell^−1) and simultaneously treated with the test compounds at various concentrations or solvent as control. The culture medium was removed after 72 h inoculation, the intracellular total RNA (in 96-well plates) was extracted with RNeasy Mini Kit (Qiagen), and total intracellular proteins (in 6-well plates) were extracted with Cyto-Buster Protein Extraction Reagent added with 1 mM protease inhibitor cocktail. The intracellular HCV RNA was quantified with a real time one-step reverse-transcription polymerase chain reaction (RT-PCR).
(In qPCR the cycle at which signal appears reflects the starting amount.)

A further data set concerns Kunming mice. Put plainly: Acute toxicity test, single oral dosing, 7 days monitoring. It counts as in vivo. How it is done: Each compound was given orally in a single-dosing experiment at 250, 500, 750 or 1000 mg kg^−1, respectively. The mice were closely monitored for 7 days.
Female Kunming mice with weight of 20.0 ± 1.0 g were fed with regular rodent chow and housed in an air conditioned room. The mice were randomly divided into different groups with six mice each. Each compound was given orally in a single-dosing experiment at 0, 250, 500, 750 or 1000 mg kg^−1 (ddH2O as control), respectively. The mice were closely monitored for 7 days. Body weight as well as survival was monitored.

Data set [2] is described as follows: PK study after single oral dosing. It counts as in vivo, SD rats. As to conditions: rats, single oral dosing of 25 mg kg^−1, n = 3.
The test system of another data set is Huh7.5 cells. Description: Cytotoxicity assay (MTT) in Huh7.5 cells. It counts as cell-based, human. How it is done:
as §1, §2
(§3) Huh7.5 cells were seeded into 96-well plates (Costar) at a density of 3 × 10^4 cells cm^−2. After 24 h incubation, fresh culture medium containing test compounds at various concentrations were added. 72 h later, cytotoxicity was evaluated with 3-(4,5-dimethylthiazol-2-yl)-2,5-diphenyltetrazolium bromide (MTT).

Data set [3] can be described thus: Cytotoxicity assay (MTT) in Huh7.5 cells. It counts as cell-based, human. The conditions noted are these: human. How it is done:
as §1, §2, §3

The test system of data set [4] is HCV. The arrangement: method as in PMID 23516533, PMID 20593456. As to conditions: earlier studies; cited from earlier work.
Where [5] appears, read: HCV-infected Huh7.5 cells, 72 h, real-time RT-PCR.
The mark [6] stands for this setting: Huh7.5 cells, 72 h, MTT, read-out: CC50 (cytotoxic concentration required to inhibit Huh7.5 cell growth by 50%).
Where [7] appears, read: Hepatitis C virus, Huh7.5, 72 h.

Regarding `COc1ccc(CN2CC3CCCN4CCCC(C2CCCCO)C34)cc1.Cl.Cl` (centres unmarked) [7a, 12N-(4-Methoxybenzyl)matrinol dihydrochloride], the EC50 in the data set with HCV [1] (setting [5]) was determined as 2.81 ± 0.82 µM. Moreover, the LD50 in the data set on Kunming mice amounted to 708 mg/kg. For the same compound, in data set [2], the “AUC 0–t” value is 1.55 µM·h, the “AUC 0–∞” value stood at 1.58 µM·h, the highest level (Cmax) was 620 nM and the MRT is listed as 3.55 h. In data set [2], the Tmax amounted to 0.42 h and the t1/2 stood at 4.69 h. Also, the CC50 with Huh7.5 cells (setting [6]) worked out at 383 ± 30.2 µM.

As to `Cc1ccc(CN2C[C@@H]3CCCN4CCC[C@@H]([C@H]34)[C@H]2CCCCO)cc1.Cl.Cl` [7b, 12N-(4-Methylbenzyl)matrinol dihydrochloride], the EC50 in the data set on HCV [1] (setting [5]) was under 2.06 µM. This compound also yielded an LD50 in the data set with Kunming mice of 392 mg/kg. Further, in data set [2], the “AUC 0–t” value was 2.32 µM·h, the “AUC 0–∞” value is 2.36 µM·h, the Cmax is 790 nM and the MRT amounted to 4.47 h. Also, in data set [2], the time to peak (Tmax) is given as 1.00 h and the t1/2 is 3.39 h. In addition, in the data set on Huh7.5 cells (setting [6]), the CC50 is 252 ± 3.04 µM.

Turning to `O=[N+]([O-])c1cccc(CN2C[C@@H]3CCCN4CCC[C@@H]([C@H]34)[C@H]2/C=C\CCO)c1` (as salt: hydrochloride) [compound 20, (Z)-12N-(3-nitrobenzyl)-Δ^βγ-matrinic crotonol dihydrochloride], the melting point lay within 143 to 145 °C.

In turn, `CCCC[C@@H]1[C@H]2CCCN3CCC[C@@H](CN1Cc1ccc(OC)cc1)[C@@H]23` [compound 9, 12N-4-methoxybenzyl matrinic butane] came in with a melting point of 73 to 74 °C. The EC50 in the data set on HCV [1] (setting [7]) was 1.16 ± 0.25 µM. The “SI (ratio of CC50 to EC50)” value in the data set on HCV [1] was 36.1. In data set [3] (setting [6]), the CC50 at 72 h is 41.9 ± 1.1 µM.

With `CCC[C@H](NC(=O)[C@@H]1[C@H]2CCC[C@H]2CN1C(=O)[C@@H](NC(=O)[C@@H](NC(=O)c1cnccn1)C1CCCCC1)C(C)(C)C)C(=O)C(=O)NC1CC1` [Tela, telaprevir, reference compound], in the data set with HCV [1] (setting [7]), the EC50 is 0.02 ± 0.02 µM. Also, the “SI (ratio of CC50 to EC50)” value with HCV [1] is recorded as 1950. Further, in data set [3], the CC50 at 72 h came out at 47.6 ± 0.61 µM.

Regarding `COc1ccc(CN2C[C@@H]3CCCN4CCC[C@@H]([C@H]34)[C@H]2CCCC(=O)O)cc1` [compound 1, 12N-4-methoxylbenzyl matrinic acid], the EC50 with HCV [1] (Hepatitis C virus, HCV-infected Huh7.5 cells, 72 h, real-time RT-PCR) stood at 43.8 ± 3.81 µM. Moreover, the “SI (ratio of CC50 to EC50)” value with HCV [1] is over 22.8. Moreover, the “SI (anti-HCV)” value in the data set with HCV [4] was “over 22”. Also, in data set [3] (setting [6]), the CC50 at 72 h is over 1000 µM.

In the case of `O=[N+]([O-])c1cccc(CN2C[C@@H]3CCCN4CCC[C@@H]([C@H]34)[C@H]2/C=C\CCO)c1` [compound 20, (Z)-12N-(3-nitrobenzyl)-Δ^βγ-matrinic crotonol dihydrochloride], the EC50 in the data set on HCV [1] (setting [7]) came out at 18.4 ± 1.64 µM. Besides, in the data set on HCV [1], the “SI (ratio of CC50 to EC50)” value is recorded as 17.0. In addition, in data set [3] (setting [6]), the CC50 at 72 h was found to be 312 ± 31.1 µM.

Take `CC(C)(O)CCC[C@@H]1[C@H]2CCCN3CCC[C@@H](CN1Cc1ccncc1)[C@@H]23` [10e, 1′,1′-Dimethyl-12N-(4-pyridylmethyl)matrinol]: the EC50 in the data set with HCV [1] (setting [5]) was 80.4 µM. This compound had a CC50 with Huh7.5 cells of over 500 µM.

Turning to `COC(=O)CCCC1C2CCCN3CCCC(CN1Cc1ccc([N+](=O)[O-])cc1)C23.Cl.Cl` (centres unmarked) [6e, Methyl 12N-(4-nitrobenzyl)matrinate dihydrochloride], in the data set with HCV [1] (setting [5]), the EC50 is 14.2 ± 3.13 µM. Besides, in the data set on HCV [1], the “SI (ratio of CC50 to EC50)” value worked out at 16.5. In the data set on Huh7.5 cells, this compound gave a CC50 of 235 ± 48.2 µM.

What is called LD50 is the dose at which mortality reaches 50%. Low readings indicate greater toxicity, high ones lower toxicity. For orientation: Cmax means the maximum level reached in the sampled fluid or tissue. As usually defined, the MRT is a mean duration of stay, worked out from the concentration-time curve. One may read the Tmax as the time from dosing to the highest level. The melting point is the temperature, or range, at which the solid turns liquid.
